Assay results taken from patent US10994016B2, “Graphene oxide mediated cellular delivery of gadolinium-labeled molecules” (Northwestern University, priority 2015, dated 2021).
Values joined by “and” are separate entries in the source; they are usually repeats but may differ in a detail not shown here. Equal values may be shown once.

What was measured:
[1] = incubation concentration of 100 mM; cited from earlier work
[2] = Octanol-water partition coefficients; type: physicochemical; details: errors show SEM; Gd in each layer by ICP-MS
Description: Approximately 1 mg of each compound was dissolved in 1 mL of a 1:1 mixture of water/1-octanol. After shaking the sample tube vigorously for 30 s, the tube was placed on a rotator for gentle mixing over 6 h. The tube was then removed from the rotator and allowed to sit for 12 h to ensure complete separation of the aqueous and organic phases. […] Once separation was complete, 10 μL was removed from each layer to determine the concentration of Gd by ICP-MS. The partition coefficient was calculated from the following equation: log10P=log10(Co/Cw), where log10 P is the logarithm of the partition coefficient, Co is the concentration of Gd in the 1-octanol layer, and Cw is the concentration of Gd in the water layer.

HeLa cells = assay: Cellular delivery studies with and without GO co-incubation, HeLa; type: cell-based; details: for Gd content (fmol/cell): 188 μM Gd(III), 24 h, replicate values
Description: ICP-MS Samples were prepared in 15-mL conical tubes by adding ACS reagent grade nitric acid (70%), followed by incubation at 70° C. overnight to allow for complete sample digestion. The effectiveness of this digestion protocol was previously validated for GO. After incubation, a multi-element internal standard (containing Bi, Ho, In, Li, Sc, Tb, and Y, Inorganic Ventures, Christiansburg, Va.) and milli-Q water (18.2 MΩ·cm) were added to produce a final sample of 3% (v/v) nitric acid and 5 ng/mL internal standard.
ICP-MS was performed on a computer-controlled (Plasmalab software) Thermo X series II ICP-MS (Thermo Fisher Scientific, Waltham, Mass., USA) operating in standard mode equipped with an ESI SC-2 autosampler (Omaha, Nebr., USA). Each sample was acquired using 1 survey run (10 sweeps) and 3 main (peak jumping) runs (100 sweeps). The isotopes selected for analysis were Gd with In and Ho isotopes selected as internal standards for data interpolation. Instrument performance is optimized daily through an autotune followed by verification via a performance report (passing manufacturer specifications). Instrument calibration was accomplished by preparing individual-element Gd standards (Inorganic Ventures, Christiansburg, Va., USA) using concentrations of 0.78125, 1.5625, 3.125, 6.25, 12.50, 25.00, 50.00, 100.0, and 200.0 ng/mL containing 3.0% nitric acid (v/v) and 5.0 ng/mL of multi-element internal standard.
Dulbecco's modified phosphate buffered saline (DPBS), media, and dissociation reagents were purchased from Life Technologies (Carlsbad, Calif.). CorningBrand® cell culture consumables (flasks, plates, etc.) and sera were purchased from VWR Scientific (Radnor, Pa.). HeLa cells (ATCC® CCL-2™) and KB cells (ATCC® CCL-17™) were purchased from the American Type Culture Collection (ATCC, Manassas, Va.) and cultured in phenol red-free minimum essential media (MEM) supplemented with 10% fetal bovine serum (FBS). Prior to all experiments, cells were plated and allowed to incubate for 24 hours before dosing. Cells were harvested with 0.25% TrypLE for 5 minutes at 37° C. in a 5.0% CO2 incubator. For sterilization, all Gd(III)-labeled molecules were filtered with 0.2 μm sterile filters prior to concentration determination and storage at 4° C. GO was used as prepared without further sterilization. […] Cells were grown in a humidified incubator operating at 37° C. and 5.0% CO2.
Cell counting was conducted using a Guava EasyCyte Mini Personal Cell Analyzer (EMD Millipore, Billerica, Mass.). After cell harvesting, an aliquot (50 μL) of the cell suspensions was mixed with Guava ViaCount reagent (150 μL) and allowed to stain at room temperature for at least 5 minutes. The dilution factor of 4 was determined based upon optimum machine performance (20-150 cells/μL). After vortexing for 10 sec, stained cells were counted using a Guava EasyCyte Mini Personal Cell Analyzer (PCA) using the ViaCount software module. For each sample, 1000 events were acquired. Gating of live/dead and cell/debris classifications were performed manually by the operator.
Cellular delivery studies were performed with HeLa and KB cells. HeLa and KB were plated at a cell density of approximately 25,000 and 50,000 cells per well, respectively, in a 24-well plate as counted by a hemocytometer. Stock solutions of 1-14 (1 mM), 150 nm GO (100 μg/mL), and 1500 nm GO (100 μg/mL) were prepared using sterile Milli-Q water. Prior to dosing, 80 μL ([…]) of each GO (150 nm and 1500 nm) and 80 μL (80 nmol) of each Gd(III)-labeled molecule (1-14) were mixed and allowed to adsorb for at least 15 minutes. 150 μL Gd(III)-GO solutions were added to 250 μL media to give a final concentration of 188 μM Gd and 18.8 μg/mL GO. Cells were incubated with the mixture of Gd(III)-labeled molecules and GO for […]. To harvest, cells were rinsed in-plate three times with 500 μL PBS and trypsinized using 100 μL 0.25% TrypLE. […]

Structure (SMILES)	Highest cellular labeling reported to date [1] [fmol Gd/cell]	Water-Octanol LogP [2]	Gd content (fmol/cell) (HeLa cells; +150 nm GO co-incubation, 18.8 μg/mL GO)	Gd content (fmol/cell) (HeLa cells; +1500 nm GO co-incubation, 18.8 μg/mL GO)	Gd content (fmol/cell), Outliers (HeLa cells; +1500 nm GO, values removed as outliers (Chauvenet's criterion, * experimenter judgment)) [fmol/cell]	Gd content (fmol/cell) (HeLa cells; molecule alone, without GO, 24-well plate)
CC(O)CN1CCN(CC(=O)[O-])CCN(CC(=O)[O-])CCN(CC(=O)[O-])CC1.[Gd+3] (stereo not drawn) [Molecule 13, [Gd(HP-DO3A)(H2O)]]	31					
O=C([O-])CN1CCN(CC(=O)[O-])CCN(CC(=O)[O-])CCN(CC(=O)[O-])CC1.[Gd+3] [Molecule 14]		−3.62 ± 0.23	0.35 fmol/cell and 0.26 fmol/cell and 0.21 fmol/cell	0.34 fmol/cell and 0.21 fmol/cell and 0.18 fmol/cell and 0.31 fmol/cell	4.32	0.22 fmol/cell and 0.31 fmol/cell and 0.20 fmol/cell
